In ChEMBL document CHEMBL1255252, “E240V substitution increases catalytic efficiency toward ceftazidime in a new natural TEM-type extended-spectrum beta-lactamase, TEM-149, from Enterobacter aerogenes and Serratia marcescens clinical isolates” (2008):
In brackets after ≈: the same amount, converted by molar mass.

Assays:
Serratia marcescens = assay: Antimicrobial activity against Serratia marcescens isolate CT-118 by broth macrodilution method; type: functional
[1] = Activity of Beta-lactamase TEM-149 T182M mutant expressed in Escherichia coli HB101
[2] = Activity of Beta-lactamase TEM-10
[3] = Activity of Beta-lactamase TEM-149 expressed in Escherichia coli HB101
Escherichia coli [4] = assay: Antimicrobial activity against Escherichia coli HB101 expressing plasmid encoded TEM-149 T182M mutant by broth macrodilution method; type: functional
Klebsiella aerogenes = assay: Antimicrobial activity against Enterobacter aerogenes isolate SS-13 by broth macrodilution method; type: functional
Escherichia coli [5] = assay: Antimicrobial activity against Escherichia coli HB101 harboring empty vector pBK-SK by broth macrodilution method; type: functional
Escherichia coli [6] = assay: Antimicrobial activity against Escherichia coli HB101 expressing recombinant plasmid encoded TEM-149 by broth macrodilution method; type: functional
[7] = Ratio of Kcat to Km for Beta-lactamase TEM-10
[8] = Ratio of Kcat to Km for Beta-lactamase TEM-149 T182M mutant expressed in Escherichia coli HB101
[9] = Ratio of Kcat to Km for Beta-lactamase TEM-149 expressed in Escherichia coli HB101

| Compound | MIC (Serratia marcescens) [µg/mL] | Km [1] [µM] | kcat [1] [s⁻¹] | Km [2] [µM] | kcat [2] [s⁻¹] | Km [3] [µM] | kcat [3] [s⁻¹] | MIC (Escherichia coli [4]) [µg/mL] | MIC (Klebsiella aerogenes) [µg/mL] | MIC (Escherichia coli [5]) [µg/mL] | MIC (Escherichia coli [6]) [µg/mL] | kcat/Km [7] [M⁻¹ s⁻¹] | kcat/Km [8] [M⁻¹ s⁻¹] | kcat/Km [9] [M⁻¹ s⁻¹] |
| --- | --- | --- | --- | --- | --- | --- | --- | --- | --- | --- | --- | --- | --- | --- |
| CC(C)(O/N=C(\C(=O)N[C@@H]1C(=O)N2C(C(=O)[O-])=C(C[n+]3ccccc3)CS[C@H]12)c1csc(N)n1)C(=O)O [CEFTAZIDIME] | > 64 | 26 | 8.3 | 607 | 17 | 19 | 8.3 | 0.5 (≈ 0.915 µM) | > 64 | > 64 | > 64 | 28000 | 320000 | 440000 |
| CC1(C)S[C@@H]2[C@H](NC(=O)[C@H](N)c3ccccc3)C(=O)N2[C@H]1C(=O)O |  | 19 | 2.4 | 4 | 12.5 | 5 | 5.4 |  |  |  |  | 3.1e+06 | 127000 | 1.08e+06 |
| CO/N=C(\C(=O)N[C@@H]1C(=O)N2C(C(=O)[O-])=C(C[N+]3(C)CCCC3)CS[C@H]12)c1csc(N)n1 | > 64 | 30 | 0.43 |  |  | 16 | 2.4 | < 0.125 | > 64 | 1 (≈ 2.08 µM) | 8 |  | 14000 | 150000 |
| C[C@H]1[C@H](NC(=O)/C(=N\OC(C)(C)C(=O)O)c2csc(N)n2)C(=O)N1S(=O)(=O)O [AZTREONAM] | > 64 | 27 | 3.6 | 28 | 2 | 51 | 4.7 | < 0.125 | > 64 | 64 (≈ 147 µM) | > 64 | 70000 | 130000 | 92000 |
| CCN1CCN(C(=O)N[C@@H](C(=O)N[C@@H]2C(=O)N3[C@@H]2SC(C)(C)[C@@H]3C(=O)O)c2ccccc2)C(=O)C1=O [PIPERACILLIN] | > 256 | 3.4 | 5 |  |  | 1.4 | 2.7 | 1 (≈ 1.93 µM) | > 256 | 32 (≈ 61.8 µM) | > 256 |  | 1.47e+06 | 1.92e+06 |
| CO/N=C(\C(=O)N[C@@H]1C(=O)N2C(C(=O)O)=C(COC(C)=O)CS[C@H]12)c1csc(N)n1 [CEFOTAXIME] | > 128 | 32 | 0.41 | 30 | 0.3 | 43 | 0.07 | < 0.125 | > 128 | 4 (≈ 8.78 µM) | 1 | 10000 | 13000 | 1600 |
| CC1(C)S[C@@H]2[C@H](NC(=O)Cc3ccccc3)C(=O)N2[C@H]1C(=O)O |  | 0.7 | 10.5 | 2 | 51 | 0.6 | 3.5 |  |  |  |  | 2.55e+07 | 1.5e+07 | 5.8e+06 |
| CC1(C)S[C@@H]2[C@H](NC(=O)[C@H](N)c3ccc(O)cc3)C(=O)N2[C@H]1C(=O)O [AMOXICILLIN] | > 64 |  |  |  |  |  |  | 8 (≈ 21.9 µM) | > 64 |  | > 64 |  |  |  |
| Cc1nnc(SCC2=C(C(=O)O)N3C(=O)[C@@H](NC(=O)Cn4cnnn4)[C@H]3SC2)s1 [CEFAZOLIN] | > 64 | 35 | 0.56 | 417 | 12.5 | 68 | 2.2 | 1 (≈ 2.2 µM) | > 64 | 4 (≈ 8.8 µM) | 32 | 30000 | 16000 | 32000 |
